Results taken from paper PMC9324693, “α-Hydroxylactams as Efficient Entries to Diversely Functionalized Ferrociphenols: Synthesis and Antiproliferative Activity Studies” (Molecules, 2022).

Experiments:
MDA-MB-231 = test: MTT cell viability assay on MDA-MB-231 cells; type: cell-based; conditions: for EC50: 96-well plates, 4000 cells/well, viability after 3 days by MTT, mean ± SD of three independent experiments
Procedure: (§1) A prerequisite to further bioorthogonal modifications is to preserve the biological properties of ferrociphenol compounds. Then, the impact of some of the grafted substituents on the antiproliferative activity was examined by a classical MTT cell viability assay on the two breast cancer cell lines MDA-MB-231 and MCF-7 as well as on the non-tumorigenic cell line hTERT-RPE1 (Table 3). The two cancer cell lines were chosen since most of the previously reported data on ferrocifens were carried out on these cellular models. The experimental protocol is described in Section 3.14., and it is important to emphasize here that the EC50 values reported in Table 3 are not to be compared to the IC50 values reported in the literature, since the assay conditions are different. For this reason, we included as a reference the ferrocenyl derivative of hydroxytamoxifen Fc-OH-TAM-3 [8] that is known to be cytotoxic to numerous cell lines. […] This feature was taken into account when performing data fitting.
(§2) MDA-MB-231, MCF-7, and hTERT-RPE1 cells were obtained from ATCC. Cells were maintained in a monolayer culture in DMEM with phenol red with Glutamax I (MDA-MB-231) or 2 mM L-glutamine (MCF-7) or 15 mM HEPES (hTERT-RPE1) supplemented with 10% FBS at 37 °C in a humidified atmosphere and 5% CO2. Stock solutions of the complexes were prepared in DMSO. Cells were seeded in 96-well plates at a density of 4000 cells/well. After overnight attachment, a dilution series of the compounds were added in the medium, and cells were incubated for a further 72 h. […] Cell viability was evaluated by using a colorimetric method based on the tetrazolium salt MTT [3-(4,5-dimethylthiazol-2-yl)-2,5-diphenyltetrazolium bromide], which is reduced by viable cells to yield purple formazan crystals. After 72 h, the medium was removed and the cells were incubated with MTT solution in PBS (10 μL of a 5 mg/mL) for 2–3 h of incubation. The formed purple formazan crystals were dissolved in 100 μL DMSO by thorough shaking, and the absorbance at 560 nm was read using a microplate reader (FLUOstar OPTIMA, BMG Labtech, Ortenberg, Germany). Each test was performed with at least three replicates and repeated at least three times. EC50 were determined using Dr Fit software.

hTERT-RPE1 = test: MTT cell viability assay on non-tumorigenic hTERT-RPE1 cells; type: cell-based; conditions: for EC50: 96-well plates, 4000 cells/well, viability after 3 days by MTT, mean ± SD of three independent experiments; for toxicity on hTERT-RPE1 compared with MCF-7: comparison of EC50 values
Procedure: as §1, §2

HRP = target: T1, HRP (Armoracia rusticana, UniProt P00433); test: Enzymatic oxidation with HRP and H2O2; type: biochemical; conditions: fourfold molar excess of H2O2, HRP, pH 8.1; λmax 571–572 nm
T1 construct: purchased
T1 sequence (P00433 31-338 limits assumed): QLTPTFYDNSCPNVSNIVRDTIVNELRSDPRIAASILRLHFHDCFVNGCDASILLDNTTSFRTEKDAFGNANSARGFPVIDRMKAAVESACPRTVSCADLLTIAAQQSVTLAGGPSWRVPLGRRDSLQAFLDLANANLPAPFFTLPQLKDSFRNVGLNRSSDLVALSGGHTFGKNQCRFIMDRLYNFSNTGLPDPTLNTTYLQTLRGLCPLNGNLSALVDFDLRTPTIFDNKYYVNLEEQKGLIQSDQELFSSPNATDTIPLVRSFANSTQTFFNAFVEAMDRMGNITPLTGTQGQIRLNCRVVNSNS
Procedure: Enzymatic oxidation of 19, 20, 22, 23, and 25 was performed with a fourfold molar excess of H2O2 in the presence of HRP at pH 8.1. […] This behavior is reminiscent of that previously observed for a structurally related diphenol complex, which lets us conclude that enzymatic oxidation of 19, 20, 22, 23, and 25 affords the corresponding quinone methide in the anionic phenolate form, regardless of the substituent grafted from the phthalimide ring.
Figure S51. UV-vis spectra of compounds 19, 20, 22, 23 and 25 (50 µM) treated by HRP (46 nM) and H2O2 (200 µM) in 0.2 M TRIS buffer pH 8.1. Conversion to the phenolate form of the quinone methides is assessed by the appearance of the characteristic bands at ca. 570 and 360 nm. […]

MCF-7 = test: MTT cell viability assay on MCF-7 cells; type: cell-based; conditions: for EC50: 96-well plates, 4000 cells/well, viability after 3 days by MTT, mean ± SD of three independent experiments
Procedure: as §1, §2

[1] = test system: glioblastoma cell model U87; parameters: method as in PMID 26136201; conditions: cited from earlier work
[2] = test system: triple negative breast cancer cell line MDA-MB-231; conditions: measured after 5 days of incubation (stated for B and C); cited from earlier work
[3] = Solubility tests by shaking suspensions and RP-HPLC analysis of supernatants; type: physicochemical; conditions: for solubility in aqueous medium: water or PBS, shaken overnight at room temperature, RP-HPLC of supernatants, theoretical concentration 1 mM
Procedure: Due to water insolubility being a known issue for the ferrocidiphenol family, we exploited this strategy to attach substituents that could increase their solubility in a biologically relevant context. Thus, attaching short and monodisperse PEG chains seemed interesting. The tetraethylene glycol chain was readily grafted to A to afford 22 in 79% yield at room temperature in less than 3 h.
Figure S50: Solubility studies by RP-HPLC analysis of compounds 18 (A), 20 (B) and […]
A given amount of compounds 18, 20 and 22 was weighted and suspended in a given volume of tested solvent (DMSO, MeOH, PBS and H2O) to reach a theoretical concentration of 1 mM. Suspensions were sonicated for 1 min and shaken at R.T. for 18 h. The resulting solutions were filtrated (pore size 0.2 µm) and diluted to 100 µM in MeCN (for the solutions in organic solvents). HPLC analysis was performed on Nucleodur C18 column, (100 Å , 5 µm, 4.6 x 150 mm, Macherey-Nagel) using […]
(also on this page, place not known: MeOH DMSO PBS – H2O A PBS MeOH DMSO PBS B H2O MeOH DMSO PBS – H2O C) […]

[4] = test system: NCI-60 panel of human cancer cells; parameters: method as in PMID 30977944; conditions: read-out: mean GI50 (half maximal growth inhibition); cited from earlier work

Compound	EC50 (MDA-MB-231) [µM]	EC50 (hTERT-RPE1) [µM]	toxicity on hTERT-RPE1 compared with MCF-7 (hTERT-RPE1)	enzymatic oxidation to quinone methide (HRP)	EC50 (MCF-7) [µM]	solubility in aqueous medium [3]	other results
2,3-Dihydro-3-(2-methoxycarbonylethylthio)-2-[4-ferrocenyl-5,5-bis-(4-hydroxyphenyl)-ent-4-enyl]-1H-isoindol-1-one [Compound 25]	18 ± 0.4	9.1 ± 0.4	twice more toxic	rapidly converted to bright pink adducts	4.7 ± 1.4	–	–
O=C1c2ccccc2C(=O)N1CCCC(=C(c1ccc(O)cc1)c1ccc(O)cc1)[c-]1cccc1.[Fe+2].c1cc[cH-]c1 [A]	–	–	–	–	–	–	IC50 [1]: 0.018 µM; IC50 [2]: 0.145 µM
O=C1c2ccccc2C(=O)N1CCCC[c-]1cccc1.[Fe+2].c1cc[cH-]c1 [Compound 3h, N-(4-ferrocenylbutyl) Phthalimide]	> 50	> 50	–	–	> 50	–	inhibition of cell growth, MDA-MB-231 (MDA-MB-231; MTT, 72 h): did not inhibit cell growth; inhibition of cell growth, hTERT-RPE1 (hTERT-RPE1; MTT, 72 h): did not inhibit cell growth; inhibition of cell growth, MCF-7 (MCF-7; MTT, 72 h): did not inhibit cell growth
O=C1c2ccccc2C(CCO)N1CCCC(=C(c1ccc(O)cc1)c1ccc(O)cc1)[c-]1cccc1.[Fe+2].c1cc[cH-]c1 (stereo not drawn) [Compound 20, 2,3-Dihydro-3-(2-hydroxyethyl)-2-[4-ferrocenyl-5,5-bis-(4-hydroxyphenyl)-pent-4-enyl]-1H-isoindol-1-one]	6.3 ± 2.1	5 ± 0.2	twice more toxic	rapidly converted to bright pink adducts	10.6 ± 0.3	none of these compounds were soluble in aqueous medium	solubility in organic solvents [3]: poorly soluble in organic solvents, except for DMSO
O=C1c2ccccc2C(CCCCCCO)N1CCCC(=C(c1ccc(O)cc1)c1ccc(O)cc1)[c-]1cccc1.[Fe+2].c1cc[cH-]c1 (stereo not drawn) [Compound 21, 2,3-Dihydro-3-(6-hydroxyhexyl)-2-[4-ferrocenyl-5,5-bis-(4-hydroxyphenyl)-pent-4-enyl]-1H-isoindol-1-one]	–	–	–	–	–	–	solubility in organic solvents [3]: improved the solubility in organic solvents including DCM
O=C1c2ccccc2C(OCCOCCOCCOCCO)N1CCCC(=C(c1ccc(O)cc1)c1ccc(O)cc1)[c-]1cccc1.[Fe+2].c1cc[cH-]c1 (stereo not drawn) [Compound 22, O-{2,3-Dihydro-2-[4-ferrocenyl-5,5-bis-(4-hydroxyphenyl)-pent-4-enyl]-1H-isoindol-1-one-3-yl}-12-hydroxy-1,4,7,10-tetraoxadodecane]	8.8 ± 2.5	24.7 ± 1.1	similar	rapidly converted to bright pink adducts	29.9 ± 1.3	none of these compounds were soluble in aqueous medium	–
C#CCCCC1c2ccccc2C(=O)N1CCCC(=C(c1ccc(O)cc1)c1ccc(O)cc1)[c-]1cccc1.[Fe+2].c1cc[cH-]c1 (stereo not drawn) [Compound 23, 2,3-Dihydro-3-(pent-4-ynyl)-2-[4-ferrocenyl-5,5-bis-(4-hydroxyphenyl)-pent-4-enyl]-1H-isoindol-1-one]	2.4 ± 0.5	12.9 ± 3.3	–	rapidly converted to bright pink adducts	4.2 ± 0.7	–	selectivity: less toxic on hTERT-RPE1 with respect to MCF-7 (hTERT-RPE1; ratio of EC50 values): 3 fold
COCCOCCOCCOCCOCCOCCOCCSC1c2ccccc2C(=O)N1CCCC(=C(c1ccc(O)cc1)c1ccc(O)cc1)[c-]1cccc1.[Fe+2].c1cc[cH-]c1 (stereo not drawn) [Compound 27, S-{2,3-Dihydro-2-[4-ferrocenyl-5,5-bis-(4-hydroxyphenyl)-pent-4-enyl]-1H-isoindol-1-one-3-yl}-1-thia-4,7,10,13,16,19,22-heptaoxatricosane]	–	–	–	–	–	none of these compounds were soluble in aqueous medium	–
O=C1CCC(=O)N1CCCC(=C(c1ccc(O)cc1)c1ccc(O)cc1)[c-]1cccc1.[Fe+2].c1cc[cH-]c1 [Compound B]	–	–	–	–	–	–	GI50 [4]: ~0.1 µM; IC50 [2]: 0.035 µM
O-{2,3-Dihydro-2-[4-ferrocenyl-5,5-bis-(4-hydroxyphenyl)-pent-4-enyl]-1H-isoindol-1-one-3-yl}-24-azido-1,4,7,10,13,16,19,22-octaoxatetracosane [Compound 24]	–	–	–	–	–	none of these compounds were soluble in aqueous medium	–
